Measured values: patent publication US20070248705A1, “Agents for Activating the Transcription Factor Nrf2 and Foods Having Such Function” (KIRIN BEER KABUSHIKI KAISHA, priority 2004, published 2007)

Test system: quinone reductase (QR) activity in mouse hepatoma Hepa1c1c7 cells
Assay: Induction of quinone reductase (QR) activity
Format: cell-based
Conditions: Hepa1c1c7 cells, 0.6, 1.7, 5, and 15 μM, 48 hours; listed as HI (F)
Experimental: It has been known that quinone reductase (QR) activity is increased by increasing the expression of NAD(P)H:quinone oxidoreductase (NQO1) by Nrf2 activation (Proc Natl Acad Sci USA. 101, 10446-51 (2004)). Accordingly, isohumulones were allowed to act on mouse hepatoma Hepa1c1c7 cells (available from Dainippon Pharmaceutical Co., Ltd.) to examine whether the QR activity was induced.
The QR activity was measured in accordance with the method described in Analytical Biochemistry 169, 328-336 (1988).
A mouse hepatoma cell line Hepa1c1c7 was seeded on a 96-well plate (7-10×10^3 cells/well), 50 μl each of an α-MEM medium (Invitrogen) supplemented with 10% fetal bovine serum (HyClone) and penicillin-streptomycin (100 units/ml and 100 μg/ml, respectively; Sigma) was added, and the plate was incubated at […] in an atmosphere of 5% CO2 overnight. Next, the culture medium was replaced with a medium containing isomerized hop extract individually at a concentration of 1.9, 5.6, 16.7, or 50 μg/ml, or with a medium containing humulone (H), cohumulone (cH), adhumulone (aH), isohumulone (IH), isohumulone (IcH), or isohumulone (IaH) individually at a concentration of 0.6, 1.7, 5, and 15 μM and the plate was further incubated for 48 hours. Then, the cells in each well were broken using 0.08% digitonin and a 2 mM EDTA solution and absorption at 610 nm was measured by a menadione-formazan system using a microplate reader (Power Wave 200, Bio-Tek Instruments).
The QR inducing activity was calculated as a relative activity setting the activity of cells without addition to be 1 (n=3, mean±standard variation). Sulforaphane (Sul, available from Sigma) was used as a positive control.

SMILES: CC(C)=CCC(=O)C1(O)C(O)=C(C(=O)CC(C)C)C(=O)C1CC=C(C)C (stereo not shown) [IH (F), isohumulone]
- QR inducing activity: activity was higher in isohumulones having a higher trans form content
